Here are results for 19 molecules from PubChem BioAssay (NCI).

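Assay format: 96-well plates, 48-hour exposure. Here, GI50 denotes the concentration required for 50% inhibition of growth. TGI: concentration producing complete growth inhibition.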

Holding throughout (test): growth of human tumour cells (NCI), 48 h
The subject of assay [1] is A498 renal.
Assay [2] relates to A549 NSCLC.
Assay [3] deals with ACHN renal.
For assay [4], the system named is CAKI-1 renal.
Assay [5] relates to HCC-2998 colon.
For assay [6], the system named is IGROV1 ovarian.
The test system of assay [7] is M14 melanoma.
In assay [8] the test system is MALME-3M melanoma.
The test system of assay [9] is NCI-H23 lung.
In assay [10] the test system is RPMI-8226 leukemia.

On to `C/C(=N/NC(N)=S)c1ccc[nH]1`, for which the TGI in assay [1], in assay [2], in [3], in [4], in [5] and in assay [6] was greater than 100 µM in each case. The TGI in assay [7], in assay [8], in assay [9] and in assay [10] was greater than 100 µM throughout.
Consider `C[C@@H]1Nc2cc(NC(=O)OCCF)nc(N)c2N=C1c1ccccc1`, for which the GI50 in assay [1], in [3] and in [4] was less than 0.0001 µM in each case. Moreover, the TGI was 46.6 µM in assay [2]; greater than 100 µM in assay [3]; less than 0.0001 µM in assay [6]; 49 µM in assay [8]; greater than 100 µM in assay [9]; less than 0.0001 µM in [10].
As to `CC(=O)Nc1ccc(/C=C/c2ccc(NC(=O)Nc3ccc(/C=C/c4ccc(NC(C)=O)cc4S(=O)(=O)O)c(S(=O)(=O)O)c3)cc2S(=O)(=O)O)c(S(=O)(=O)O)c1`, the TGI in [1], in assay [2], in assay [5], in [6], in [8] and in assay [9] was greater than 100 µM each time. The same molecule yielded a TGI in assay [10] greater than 100 µM.
On to `COCc1nc2c(OC)c(-c3nc4nc(N5CCN(C)CC5)ccc4[nH]3)cc(OC)c2n1C`, for which the TGI in assay [2] was greater than 100 µM; in assay [3], 57.4 µM; in assay [4], greater than 100 µM; in [5], 32.4 µM; in assay [6], greater than 100 µM; in [7], 43.3 µM. In addition, the TGI in [8] is 35.6 µM; in [9], greater than 100 µM; in assay [10], 59.1 µM.
For `CCOP(=O)(OCC)C(c1ccc(F)cc1)N(C(=O)NC(F)(F)F)c1cccc(C(F)(F)F)c1` (stereo not given), the TGI in [1], in [2], in assay [3], in assay [4], in assay [5] and in [6] was greater than 100 µM throughout. The TGI in assay [7], in assay [8], in assay [9] and in [10] was greater than 100 µM each time.
Take `CCC(C)NC1=NCC(C)S1` (stereo not given): the TGI in assay [1], in [2], in assay [3], in [4], in [5] and in [6] was greater than 100 µM each time. For the same molecule, the TGI in [7], in assay [8], in assay [9] and in [10] was greater than 100 µM in each case.
Turning to `CN=C(SC)N(C)c1nc(=[N+](C)C)ss1`, the TGI in [1], in assay [2], in [3], in assay [4], in [5] and in assay [6] was greater than 100 µM throughout. Besides, the TGI in assay [7] and in [9] was greater than 100 µM in each case.
With `COc1ccccc1CNCCCN1C(=O)c2ccc3c4c(ccc(c24)C1=O)C(=O)N(CCCNCCNCCCN)C3=O`, the GI50 in assay [1] is 5.01 µM; in assay [2] it was 3.01 µM; in [3], 4.45 µM; in assay [4], 21.7 µM; in [5], 2.25 µM; in assay [6], 3.69 µM. Further, the GI50 in assay [7] is 2.07 µM; in assay [8] it was 1.61 µM; in assay [9] it was 1.72 µM; in assay [10], 10.9 µM. Besides, the TGI is 20.1 µM in [1]; 13.1 µM in [2]; 79.8 µM in [3]; greater than 100 µM in [4]; 10.3 µM in assay [5]; 15.9 µM in [6]. For the same molecule, the TGI is 4.49 µM in assay [7], 3.2 µM in [8], 5.59 µM in assay [9] and greater than 100 µM in assay [10].
Take `CCOC(=O)Cn1c(=O)ccn(COCCO)c1=O`: the TGI in assay [1], in [2], in [3], in assay [4], in assay [5] and in [6] was greater than 100 µM throughout. The TGI in [7], in assay [8], in assay [9] and in [10] was greater than 100 µM throughout.
In the case of `CC1CC2=C(S(=O)(=O)c3ccccc3)CC(S(=O)(=O)c3ccccc3)(S(=O)(=O)c3ccccc3)CC21` (stereo not given), the TGI in [1], in assay [2], in assay [3], in [5], in assay [6] and in assay [7] was greater than 100 µM each time. Moreover, the TGI in [9] and in assay [10] was greater than 100 µM throughout.
With `COc1cc2oc(-c3ccc(O)cc3)c(OC)c(=O)c2c(O)c1OC`, the GI50 was 11 µM in [1]; 58.6 µM in assay [2]; 35.8 µM in assay [3]; 45.1 µM in assay [4]; 18.8 µM in [5]; 76.6 µM in [6]. For the same molecule, the GI50 was 47.2 µM in assay [7], 28.4 µM in [8] and 63.4 µM in assay [9]. Besides, the TGI in [1] is greater than 100 µM; in [2] it was greater than 100 µM; in assay [3], greater than 100 µM; in assay [4], greater than 100 µM; in assay [5] it was 72.8 µM; in assay [6], greater than 100 µM. Also, the TGI in assay [7], in [8] and in assay [9] was greater than 100 µM throughout.
For `COc1ccc(S(=O)(=O)c2ccccc2[N+](=O)[O-])cc1`, the TGI in assay [1], in assay [2], in [5], in assay [6], in [7] and in assay [8] was greater than 100 µM each time. In addition, the TGI in assay [9] and in [10] was greater than 100 µM each time.
For the molecule `CCOC(=O)c1ccc(N[C@@H]2c3cc4c(cc3C(c3cc(OC)c(O)c(OC)c3)[C@H]3C(=O)OCC32)OCO4)cc1O` (stereo not given in full), the TGI in [1] was 2.81 µM; in [2], 2.51 µM; in [4], 3.26 µM; in [5], 3.97 µM; in [6], greater than 43.5 µM; in assay [8] it was 14.2 µM. In addition, the TGI turned out to be 4.26 µM in assay [9] and 4.77 µM in [10].
As to `COCCCNc1nc(N)c(C#N)c(C#N)c1C#N`, the TGI in [1], in assay [2], in assay [3], in assay [4], in [5] and in [6] was greater than 10 µM in each case. Moreover, the TGI in [7], in [8], in assay [9] and in [10] was greater than 10 µM in each case.
Turning to `Nc1nc([O-])c2c(n1)[n+](C1OC(CO)C(O)C1O)cn2CCO` (stereo not given), the TGI in assay [1], in assay [2], in assay [3], in assay [4], in [6] and in [7] was greater than 100 µM in each case. Moreover, the TGI in assay [8] and in assay [10] was greater than 100 µM in each case.
In the case of `Clc1ccc(C[P+](c2ccccc2)(c2ccccc2)c2ccccc2)c(Cl)c1`, the TGI in assay [1] was 30.6 µM; in assay [2], 32.5 µM; in assay [3] it was 47.6 µM; in assay [5], 15.1 µM; in assay [6], 15.6 µM; in assay [7] it was 14.3 µM. The TGI stood at 15.7 µM in [8], 13 µM in assay [9] and 5.31 µM in assay [10].
Consider `CCOC(=O)CNC(=O)N(CC)C12CC3CC(CC(C3)C1)C2`, for which the TGI in [1] came out at 274 µM; in assay [2], 602 µM; in assay [4], 313 µM; in [5], 402 µM; in assay [6], 524 µM; in [8], 278 µM. The TGI in [9] came to 419 µM; in assay [10], 316 µM.
`C[Si](C)(C)OC1CC(=O)OC1n1cc(F)c(=O)[nH]c1=O` (stereo not given): the TGI in assay [1], in [2], in assay [3], in assay [4], in [5] and in assay [6] was greater than 100 µM each time. In addition, the TGI was greater than 100 µM in assay [7], greater than 100 µM in assay [8], greater than 100 µM in [9] and 40.4 µM in [10].
Consider `CN(C)CC1CCCC(CN(C)C)C1OC(=O)c1ccccc1` (stereo not given), for which the TGI in assay [1], in [2], in assay [3], in assay [4], in assay [5] and in assay [6] was greater than 100 µM each time. The TGI in assay [7], in [8], in assay [9] and in assay [10] was greater than 100 µM each time.
